# In article PMC4156305, “Structure Driven Design of Novel Human Ether-A-Go-Go-Related-Gene Channel (hERG1) Activators” (PLoS ONE, 2014):
# “Also recorded” adds a separate entry of the source.
# Key:
# hERG1 [1] = molecular target: T1, hERG1 (Homo sapiens, UniProt Q12809); assay: Whole cell patch-clamp of hERG1 currents in transfected HEK 293 cells; type: cell-based; design: Inactivation ΔV0.3: unit not given here; settings: for Deactivation Δλ/λcon: deactivation time constant relative to baseline; for Activation V1/2 (mV): shift in voltage-dependence of activation; for Inactivation ΔV0.3: shift in voltage-dependence of inactivation; for Amplitude I/Icon: tail current relative to baseline
# T1 construct: expressed in transfected cells; host or cells: HEK 293
# Protocol: (§1) Transfected HEK cells on glass cover slips were placed in a chamber mounted on a modified stage of an inverted microscope. The chamber was superfused at a rate of 2 mL/min with a normal external solution. The extracellular solution contained (in mM) NaCl 140, KCl 5.4, CaCl2 1, MgCl2 1, HEPES 5, glucose 5.5, pH 7.4, with NaOH. Micropipettes were pulled from borosilicate glass capillary tubes on a programmable horizontal puller (Sutter Instruments, Novato, CA). Standard patch-clamp methods were used to measure the whole cell currents of hERG1 mutants expressed in HEK 293 cells using the AXOPATCH 200B amplifier (Axon Instruments). Unless otherwise indicated, tail currents were recorded when the voltage was returned to −50 mV from +50 mV. Further details on electrophysiological methods are collected in Methods S1.
# (§2) Electrophysiology Protocol:
# (§3) The pipette solution contained the following (at mM concentration): KCl 10, K-aspartate 110, MgCl2 5, Na2ATP 5, EGTA 10, HEPES 5, and CaCl2 1. The solution was adjusted to pH 7.2 with KOH. The extracellular solution contained the following (at mM concentration): NaCl 140, KCl 5.4, CaCl2 1, MgCl2 1, HEPES 5, and glucose 5.5. The solution was adjusted to pH 7.4 with NaOH. For IKr measurements, the whole cell configuration of the patch clamp method was used. The series resistance was less than 7
# (§4) MΩ. The data were sampled at 1 kHz. The holding potential was -80 mV. The activation of hERG tail currents was induced by depolarization to a range of potentials from +50 to -100 mV in 10 mV steps for 1 second. This was followed by repolarization to -100 mV for 1 second to record the tail currents.
# (§5) -100 mV, a -120 mV 1 second pre-pulse was applied to completely close the hERG channels before subsequent depolarization. All of the tail currents reported in this manuscript represent dofetilide-sensitive currents. The inactivation of hERG was measured by a previously reported triple-pulse protocol5, 6. The holding potential was -80 mV. The hERG channel was first depolarized to +50 mV for 1 second. Recovery from inactivation was achieved using a short pulse (a 10 ms hyperpolarization) to -120 mV, followed by the application of test pulses from -100 to 0 mV for 1 second in 10 mV steps.
# (§6) A voltage of -100 mV was selected because it was on the flat part of the inactivation-voltage relationship. The methods employed are identical to ones previously reported. […]
# [2] = molecular target: T2, cardiac sodium current (INa) (Mus musculus, UniProt Q9JJV9); assay: Patch clamp of INa in neonatal cardiomyocytes; type: cell-based
# T2 construct: endogenous in cells; host or cells: neonatal (day 1) mouse ventricular cardiomyocytes
# Protocol: (§7) Action potentials were recorded from neonatal (day 1) mouse ventricular myocytes as previously reported. Although IKr has little physiologic importance to the action potential of the adult rodent heart, we previously reported that IKr is the dominant repolarizing current in day 1 neonatal myocytes, with little or no IKs. Thus, these neonatal cells are well suited to assess the physiologic relevance of blockade of IKr to the action potential characteristics. In contrast, to address the possibility that compounds inadvertently interact with other channels, action potentials were recorded from adult cardiac myocytes. Myocytes on glass coverslips were placed in a chamber mounted on a modified stage of an inverted microscope.
# Figure 10 Drug effect on action potential in cardiomyocytes. Panel A. The effect of 20 µM and 3 µM Panel B. MC-II-157c on action potentials neonatal cardiomyocytes. […] In patch clamp studies, the INa was induced by depolarizations to −30 mV from holding potentials of −100 mV. The light traces are baseline and bold traces were recorded with MC-II-157c.
# [3] = test system: fetal mouse ventricular myocytes; assay: Action potential recordings in neonatal (day 1) / fetal mouse ventricular myocytes; type: cell-based; settings: for upstroke of the action potential, overshoot potential and excitability threshold: 20 µM
# Protocol: as §7
# hERG1 E544L [4] = molecular target: T3, hERG1 E544L (Homo sapiens, UniProt Q12809, E544L); assay: Whole cell patch-clamp of hERG1 E544L mutant; type: cell-based; settings: 10 µM
# T3 construct: expressed in transfected cells; host or cells: HEK 293
# Protocol: as §1, §2, §3, §4, §5, §6
# hERG1 E544L [5] = molecular target: T3, hERG1 E544L; settings: ref [7]–[12]; cited from earlier work
# hERG1 [6] = molecular target: T1, hERG1; settings: cited from earlier work
# [7] = Conc. 3 µM, listed as MC-II-157c
# [8] = Conc. 10 µM, listed as MC-II-157c
# [9] = Conc. 2 µM, listed as MC-II-159c
# T2 sequence (Q9JJV9 whole entry): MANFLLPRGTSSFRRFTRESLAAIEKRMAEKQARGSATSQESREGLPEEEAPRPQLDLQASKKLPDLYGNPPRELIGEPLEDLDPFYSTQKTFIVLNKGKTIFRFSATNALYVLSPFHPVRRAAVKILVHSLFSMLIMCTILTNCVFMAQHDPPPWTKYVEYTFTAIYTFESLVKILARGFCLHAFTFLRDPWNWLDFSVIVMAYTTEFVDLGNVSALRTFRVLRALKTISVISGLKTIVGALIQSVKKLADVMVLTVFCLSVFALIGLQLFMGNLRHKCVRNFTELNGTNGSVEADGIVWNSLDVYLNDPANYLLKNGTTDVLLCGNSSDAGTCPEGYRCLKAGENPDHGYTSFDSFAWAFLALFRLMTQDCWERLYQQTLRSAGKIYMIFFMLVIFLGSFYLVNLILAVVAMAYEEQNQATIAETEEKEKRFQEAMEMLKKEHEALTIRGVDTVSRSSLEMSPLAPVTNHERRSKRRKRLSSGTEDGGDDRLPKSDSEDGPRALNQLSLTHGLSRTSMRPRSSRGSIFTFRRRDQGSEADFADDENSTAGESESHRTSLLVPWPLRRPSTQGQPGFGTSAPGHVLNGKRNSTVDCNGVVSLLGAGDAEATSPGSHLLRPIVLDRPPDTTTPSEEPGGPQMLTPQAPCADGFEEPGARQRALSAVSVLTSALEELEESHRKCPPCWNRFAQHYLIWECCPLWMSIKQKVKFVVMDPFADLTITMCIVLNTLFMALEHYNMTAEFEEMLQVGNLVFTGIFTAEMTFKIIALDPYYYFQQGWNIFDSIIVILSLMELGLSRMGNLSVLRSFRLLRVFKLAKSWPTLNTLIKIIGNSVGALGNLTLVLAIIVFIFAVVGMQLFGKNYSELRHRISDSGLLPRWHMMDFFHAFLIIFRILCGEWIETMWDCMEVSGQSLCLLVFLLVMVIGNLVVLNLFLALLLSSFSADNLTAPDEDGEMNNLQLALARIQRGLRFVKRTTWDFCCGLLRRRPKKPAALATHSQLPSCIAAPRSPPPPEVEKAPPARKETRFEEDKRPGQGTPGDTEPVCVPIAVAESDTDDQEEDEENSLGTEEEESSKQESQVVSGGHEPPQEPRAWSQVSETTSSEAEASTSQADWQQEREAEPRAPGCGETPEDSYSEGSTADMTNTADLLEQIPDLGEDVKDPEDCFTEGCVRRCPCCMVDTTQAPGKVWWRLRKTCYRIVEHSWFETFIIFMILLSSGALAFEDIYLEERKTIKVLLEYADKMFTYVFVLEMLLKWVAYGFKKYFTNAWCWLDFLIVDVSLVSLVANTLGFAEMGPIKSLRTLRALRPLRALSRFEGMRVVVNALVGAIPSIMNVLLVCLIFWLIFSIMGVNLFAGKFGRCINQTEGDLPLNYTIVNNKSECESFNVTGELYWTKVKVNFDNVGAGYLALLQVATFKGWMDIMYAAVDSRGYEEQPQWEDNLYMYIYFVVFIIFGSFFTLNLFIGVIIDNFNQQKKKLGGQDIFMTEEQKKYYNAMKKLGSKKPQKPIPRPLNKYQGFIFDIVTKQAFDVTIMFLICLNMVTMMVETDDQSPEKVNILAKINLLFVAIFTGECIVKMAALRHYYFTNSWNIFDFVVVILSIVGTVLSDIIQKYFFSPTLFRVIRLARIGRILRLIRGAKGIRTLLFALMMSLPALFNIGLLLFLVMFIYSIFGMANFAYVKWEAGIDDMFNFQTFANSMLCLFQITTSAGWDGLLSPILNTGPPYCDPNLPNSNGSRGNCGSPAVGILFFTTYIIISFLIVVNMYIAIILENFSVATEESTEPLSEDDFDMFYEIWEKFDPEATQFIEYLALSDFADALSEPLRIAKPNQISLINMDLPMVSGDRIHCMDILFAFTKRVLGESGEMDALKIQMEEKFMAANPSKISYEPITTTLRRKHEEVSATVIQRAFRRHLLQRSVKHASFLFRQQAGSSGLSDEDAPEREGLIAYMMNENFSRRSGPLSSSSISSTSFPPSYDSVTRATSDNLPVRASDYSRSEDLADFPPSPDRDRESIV
structure (smiles),measurement,setting,value
C[C@H](NCc1ccc(C(F)(F)F)cc1)C(=O)NC(=O)Nc1cc(C(F)(F)F)ccc1O [Compound 5],lower drug concentration at which effects on deactivation were still manifest,hERG1 [1],~2 µM
same,Deactivation Δλ/λcon,hERG1 [1]; Conc. 1 µM,0.2±0.1
same,Activation V1/2 (mV),hERG1 [1]; Conc. 1 µM,−2±0.0 mV
same,Inactivation ΔV0.3,hERG1 [1]; Conc. 1 µM,1.3±0.9
same,Amplitude I/Icon,hERG1 [1]; Conc. 1 µM,0.95±0.02
same,Deactivation Δλ/λcon,hERG1 [1]; Conc. 3 µM,0.8±0.1
same,Deactivation Δλ/λcon,hERG1 [1]; [7],slows deactivation; also recorded: modest slowing of deactivation
same,Activation V1/2 (mV),hERG1 [1]; Conc. 3 µM,−6.5±0.5 mV
same,Activation V1/2 (mV),hERG1 [1]; [7],does shift voltage dependence of activation; also recorded: shifting V1/2 of activation to hyperpolarized potentials
same,Inactivation ΔV0.3,hERG1 [1]; Conc. 3 µM,1±1
same,Amplitude I/Icon,hERG1 [1]; Conc. 3 µM,1.1±0.04
same,Amplitude I/Icon,hERG1 [1]; [7],significantly increased the tail-current amplitude; also recorded: increases tail current amplitude; also recorded: modest increase in tail current amplitude
same,Deactivation Δλ/λcon,hERG1 [1]; Conc. 10 µM,3.3±1.3
same,Activation V1/2 (mV),hERG1 [1]; Conc. 10 µM,−14±3.6 mV
same,Inactivation ΔV0.3,hERG1 [1]; Conc. 10 µM,14.0±2.7
same,Inactivation ΔV0.3,hERG1 [1]; [8],shifts voltage-dependence of inactivation to depolarized potentials
same,Amplitude I/Icon,hERG1 [1]; Conc. 10 µM,0.88±0.1
same,Amplitude I/Icon,hERG1 [1]; [8],0.88
same,Deactivation Δλ/λcon,hERG1 [1]; Conc. 20 µM,3.5±0.2
same,Activation V1/2 (mV),hERG1 [1]; Conc. 20 µM,−15.3±4.1 mV
same,Inactivation ΔV0.3,hERG1 [1]; Conc. 20 µM,+9.3±2.0
same,Amplitude I/Icon,hERG1 [1]; Conc. 20 µM,0.86±0.1
same,Deactivation Δλ/λcon,hERG1 [1]; Conc. 50 µM,4.5±0.1
same,Activation V1/2 (mV),hERG1 [1]; Conc. 50 µM,−27.5±3.5 mV
same,Inactivation ΔV0.3,hERG1 [1]; Conc. 50 µM,26±1
same,Amplitude I/Icon,hERG1 [1]; Conc. 50 µM,0.83±0.1
same,"magnitude of the effects on activation and deactivation, greater than previously reported with NS1643",hERG1 [1]; relative to NS1643,6-10 fold
same,concentrations at which INa is blocked,[2],> 20 µM
same,blockade of the sodium current (INa),"[2]; 20 µM, listed as MC-II-157c",blocks a cardiac sodium channel; also recorded: substantially blocks INa
same,action potential duration,"[3]; 3 µM, listed as MC-II-157c",significantly shortened action potential duration
same,"upstroke of the action potential, overshoot potential and excitability threshold",[3]; listed as MC-II-157c,"affected the upstroke of the action potential, the overshoot potential and the excitability threshold; also recorded: decreased the upstroke dV/dt of the action potential, the overshoot potential and excitability threshold"
same,response in amplitude of the tail current in E544L versus WT,hERG1 E544L [4],markedly diminished
same,"pharmacologic responses (shift in voltage-dependence of activation, slowing of deactivation) in E544L versus WT",hERG1 E544L [4]; listed as MC-II-157c,significantly and substantially less pharmacologic responses; also recorded: significantly and substantially reduced
C[C@H](NCc1ccc(Br)cc1)C(=O)NC(=O)Nc1cc(C(F)(F)F)ccc1O [Compound 4],lower drug concentration at which effects on deactivation were still manifest,hERG1 [1],~2 µM
same,Deactivation Δλ/λcon,hERG1 [1]; Conc. 2 µM,0.25±0.02
same,Deactivation Δλ/λcon,hERG1 [1]; [9],significantly prolonged deactivation
same,Activation V1/2 (mV),hERG1 [1]; Conc. 2 µM,−5±2 mV
same,Inactivation ΔV0.3,hERG1 [1]; Conc. 2 µM,−0.5±0.5
same,Amplitude I/Icon,hERG1 [1]; Conc. 2 µM,0.76±0.14
same,Amplitude I/Icon,hERG1 [1]; [9],0.76
same,Inactivation ΔV0.3,hERG1 [1]; Conc. 10 µM,shifts voltage dependence to hyperpolarized potentials
same,Deactivation Δλ/λcon,hERG1 [1]; Conc. 20 µM,3.1±1.6
same,Activation V1/2 (mV),hERG1 [1]; Conc. 20 µM,−33±14 mV
same,Inactivation ΔV0.3,hERG1 [1]; Conc. 20 µM,−4.5±1.5
same,Amplitude I/Icon,hERG1 [1]; Conc. 20 µM,0.6±0.07
same,Amplitude I/Icon,"hERG1 [1]; Conc. 20 µM, listed as MC-II-159c",0.6
same,"upstroke of the action potential, overshoot potential and excitability threshold",[3],"affected the upstroke of the action potential, the overshoot potential and the excitability threshold"
same,response in amplitude of the tail current in E544L versus WT,hERG1 E544L [4],markedly diminished
same,"pharmacologic responses (shift in voltage-dependence of activation, slowing of deactivation) in E544L versus WT",hERG1 E544L [4]; listed as MC-II-159c,significantly and substantially less pharmacologic responses; also recorded: significantly and substantially reduced
O=C(Nc1cc(C(F)(F)F)ccc1O)Nc1cc(C(F)(F)F)ccc1O [NS1643],Deactivation Δλ/λcon,hERG1 [1]; Conc. 10 µM,1±0.4
same,Activation V1/2 (mV),hERG1 [1]; Conc. 10 µM,−21±2.3 mV
same,Inactivation ΔV0.3,hERG1 [1]; Conc. 10 µM,+6±0.6
same,Amplitude I/Icon,hERG1 [1]; Conc. 10 µM,1±0.04
same,safety factor,"hERG1 [1]; original safety factor, blockade versus activation",3 fold
same,NS1643-induced increase in tail current amplitude,hERG1 E544L [5],398%
same,NS1643-induced shift in the V1/2 of activation,hERG1 E544L [5],−24±3 mV
same,NS1643-induced slowing of deactivation,hERG1 E544L [5],3.5 fold
same,NS1643-induced increase in tail current amplitude,"hERG1 [6]; WT, ref [7]–[12]",13%
same,NS1643-induced slowing of deactivation,"hERG1 [6]; WT, ref [7]–[12]",1.9 fold
same,concentration increasing current density / tail current magnitude,hERG1 [6]; ref [7],10 µM
same,concentration producing channel blockade,hERG1 [6]; ref [7],30 µM
same,concentration that increases the magnitude of the tail current,hERG1 [6]; ref [13],10 µM
same,concentrations that pharmacologically block the channel,hERG1 [6]; ref [13],20–30 µM
same,NS1643-induced shift in the V1/2 of activation,"hERG1 [6]; wild type (WT), ref [7]–[12]",−18±3 mV
same,"pharmacologic responses (shift in voltage-dependence of activation, slowing of deactivation) in E544L versus WT",hERG1 E544L [4],exaggerated pharmacologic responses; also recorded: exaggerated response
same,response in amplitude of the tail current in E544L versus WT,hERG1 E544L [4],exaggerated
